In patent US8846951B2 (AbbVie Inc., priority 2009, dated 2014):
pEC50, pKi: −log10 of the molar value. Like-named read-outs stand apart in the source and are kept apart here.

Key:
5HT2C receptors [1] = target: T1, 5HT2C receptors (Homo sapiens, UniProt P28335); test: Human 5-HT2C functional assay in 1321N1 cells (intracellular calcium, FLIPR); type: cell-based; design: expressed in transfected cells; host or cells: 1321N1 cells; details: 5-HT2c agonist activity, maximum calcium response
T1 sequence (P28335 33-458): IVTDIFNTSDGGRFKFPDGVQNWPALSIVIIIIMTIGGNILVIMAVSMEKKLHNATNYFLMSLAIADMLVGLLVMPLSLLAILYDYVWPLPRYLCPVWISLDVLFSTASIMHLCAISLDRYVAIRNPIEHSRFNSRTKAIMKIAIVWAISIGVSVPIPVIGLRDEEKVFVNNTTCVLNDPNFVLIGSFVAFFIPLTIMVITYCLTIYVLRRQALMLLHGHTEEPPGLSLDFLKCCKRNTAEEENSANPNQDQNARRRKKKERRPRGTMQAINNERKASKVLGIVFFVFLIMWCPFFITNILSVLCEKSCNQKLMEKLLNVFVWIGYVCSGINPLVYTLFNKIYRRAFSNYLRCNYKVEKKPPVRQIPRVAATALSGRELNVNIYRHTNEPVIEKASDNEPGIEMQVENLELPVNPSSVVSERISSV
Experimental: (ii) Human 5-HT2C Functional Assay in 1321N1 Cells
Functional activity was determined by testing the effect of the compounds on intracellular calcium levels in 1321N1 cells stably transfected with the human 5-HT2C receptor. Cells were seeded into 96-well plates at 50,000 cells/well and grown overnight in tissue culture medium (DMEM with Glutamax I (Invitrogen), containing 10% dFCS, 50 μg/mL Gentamicin, 400 μg/mL Geneticin) at 37° C. and 7% CO2. Growth medium was replaced by medium without dFCS for overnight incubation. Cells were loaded with a fluorescent calcium-sensitive dye in the presence of 1% probenicid according to the manufacturer's protocol (Fluo4 AM, Molecular Devices). Serial compound dilutions (final concentrations 10^−10 to 10^−5 M) were added to the cells either alone or in the presence of serotonin (10^−9 M) and the maximum calcium response was determined using a FLIPR instrument (Molecular Devices). Concentration-response curves were fitted using a four-parameter logistic equation (GraphPad Prism). The concentration at which the compound exerts half its maximal effect is named the ‘effective concentration 50’ or ‘EC50’ and is listed in Table 2.

[2] = target: T2, human serotonin 5-HT2c receptor (Homo sapiens, UniProt P28335); test: Human 5-HT2C receptor radioligand binding assay (agonist site, [125I]DOI); details: 5-HT2c agonist site; transfected CHO cell membranes; 0.2 nM [125I](±)DOI
T2 construct: expressed in transfected cells; host or cells: CHO cells (membrane homogenates)
T2 sequence (P28335 33-458): T1 sequence (P28335 33-458)
Experimental: (i) Human 5-HT2C Receptor Radioligand Binding Assay
Affinity of compounds for the agonist site of the […], receptor in transfected CHO cells was determined in a radioligand binding assay essentially as described by Bryant, H. U., et al., Life Sciences (1996) 59(15), 1259-1268.

5HT2B receptors = target: T3, 5HT2B receptors (Homo sapiens, UniProt P41595); test: Human 5-HT2B functional high throughput screening assay in CHO-K1 cells (calcium flux); type: cell-based; details: for pEC50: CHO-K1 cells, calcium flux; for Emax: 5-HT2B, maximum functional response as percentage relative to the effect of serotonin
T3 construct: expressed in transfected cells; host or cells: CHO-K1 cells
T3 sequence (P41595 whole entry): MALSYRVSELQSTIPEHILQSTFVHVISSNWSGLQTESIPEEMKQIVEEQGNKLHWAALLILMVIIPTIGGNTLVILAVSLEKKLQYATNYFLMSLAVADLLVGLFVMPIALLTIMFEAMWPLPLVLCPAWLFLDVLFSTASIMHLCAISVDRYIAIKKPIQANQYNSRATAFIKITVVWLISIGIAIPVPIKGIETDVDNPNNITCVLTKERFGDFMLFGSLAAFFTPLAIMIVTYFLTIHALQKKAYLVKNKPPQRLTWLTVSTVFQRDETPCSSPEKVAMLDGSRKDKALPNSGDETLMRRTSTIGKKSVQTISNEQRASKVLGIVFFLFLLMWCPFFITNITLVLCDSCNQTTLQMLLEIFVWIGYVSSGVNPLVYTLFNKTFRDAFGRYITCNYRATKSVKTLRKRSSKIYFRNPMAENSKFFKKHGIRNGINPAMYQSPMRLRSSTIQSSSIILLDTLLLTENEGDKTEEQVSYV
Method in brief: (§1)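 Agonism was measured as FLIPR fluorescence increase (480/530 nm, 25° C) with Ca4 dye and 2.5 mM probenecid, in serum-starved CHO-K1 lines overexpressing human 5-HT2C or 5-HT2B. Six-point 1:10 dilutions from 10 μM (0.2% DMSO final) were fitted by 4-parameter logistics. Responses were normalised to serotonin to give EC50 and % Emax.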

5HT2C receptors [3] = target: T1, 5HT2C receptors; test: Human 5-HT2C functional high throughput screening assay in CHO-K1 cells (calcium flux); type: cell-based; design: expressed in transfected cells; host or cells: CHO-K1 cells; details: for pEC50: CHO-K1 cells, calcium flux; for Emax: CHO-K1, 5-HT2C, maximum functional response as percentage relative to the effect of serotonin
Method in brief: as §1

[4] = 5-HT2B agonist activity, read-out: EC50
[5] = 5-HT2C agonist activity, read-out: EC50

pEC50 (5HT2C receptors [1])	SMILES	other results
8.31	O=C1NC[C@@H]2CN(Cc3cccc(Cl)c3)C[C@@H]2c2ccccc21 (relative stereo) [Example 41, Cis-2-(3-chlorobenzyl)-1,2,3,3a,4,5-hexahydrobenzo[c]pyrrolo[3,4-e]azepin-6(10bH)-one]	
7.95	O=C1NC[C@@H]2CN(Cc3cc(Cl)cc(Cl)c3)C[C@@H]2c2ccccc21 (relative stereo) [Example 40, Cis-2-(3,5-dichlorobenzyl)-1,2,3,3a,4,5-hexahydrobenzo[c]pyrrolo[3,4-e]azepin-6(10bH)-one]	
7.74	O=C1NC[C@@H]2CN(Cc3cccc(F)c3)C[C@@H]2c2ccccc21 (relative stereo) [Example 42, Cis-2-(3-fluorobenzyl)-1,2,3,3a,4,5-hexahydrobenzo[c]pyrrolo[3,4-e]azepin-6(10bH)-one]	
8.39	O=C1NC[C@@H]2CN(Cc3cc(Cl)ccc3Cl)C[C@H]2c2ccccc21 (relative stereo) [Example 31, Trans-2-(2,5-dichlorobenzyl)-1,2,3,3a,4,5-hexahydrobenzo[c]pyrrolo[3,4-e]azepin-6(10bH)-one]	
8.28	Cc1cc(C)cc(CN2C[C@H]3CNC(=O)c4ccccc4[C@@H]3C2)c1 (relative stereo) [Example 22, Trans-2-(3,5-dimethylbenzyl)-1,2,3,3a,4,5-hexahydrobenzo[c]pyrrolo[3,4-e]azepin-6(10bH)-one]	
7.40	Cc1ccc(CN2C[C@H]3CNC(=O)c4ccccc4[C@@H]3C2)cc1C (relative stereo) [Example 25, Trans-2-(3,4-dimethylbenzyl)-1,2,3,3a,4,5-hexahydrobenzo[c]pyrrolo[3,4-e]azepin-6(10bH)-one]	
6.58	Cc1cccc(CN2C[C@H]3CNC(=O)c4ccccc4[C@@H]3C2)c1C (relative stereo) [Example 27, Trans-2-(2,3-dimethylbenzyl)-1,2,3,3a,4,5-hexahydrobenzo[c]pyrrolo[3,4-e]azepin-6(10bH)-one]	pKi [2]: 6.68
7.00	O=C1NC[C@@H]2CN(Cc3ccccc3)C[C@@H]2c2ccccc21 (relative stereo) [Example 3, Cis-2-benzyl-1,2,3,3a,4,5-hexahydrobenzo[c]pyrrolo[3,4-e]azepin-6(10bH)-one]	
7.34	Cc1ccc(CN2C[C@H]3CNC(=O)c4ccccc4[C@@H]3C2)c(C)c1 (relative stereo) [Example 24, Trans-2-(2,4-dimethylbenzyl)-1,2,3,3a,4,5-hexahydrobenzo[c]pyrrolo[3,4-e]azepin-6(10bH)-one]	
6.75	O=C1NC[C@@H]2CN(Cc3ccccc3)C[C@@H]2c2c(F)cccc21 (relative stereo) [Example 66, Cis-2-benzyl-10-fluoro-1,2,3,3a,4,5-hexahydrobenzo[c]pyrrolo[3,4-e]azepin-6(10bH)-one]	pKi [2]: 6.54
7.11	N#Cc1cccc(CN2C[C@H]3CNC(=O)c4ccccc4[C@@H]3C2)c1 (relative stereo) [Example 36, 3-((Trans-6-oxo-1,3a,4,5,6,10b-hexahydrobenzo[c]pyrrolo[3,4-e]azepin-2(3H)-yl)methyl)benzonitrile]	
7.91	O=C1NC[C@@H]2CN(Cc3ccccc3F)C[C@H]2c2ccccc21 (relative stereo) [Example 35, Trans-2-(2-fluorobenzyl)-1,2,3,3a,4,5-hexahydrobenzo[c]pyrrolo[3,4-e]azepin-6(10bH)-one]	
	O=C1NC[C@@H]2CNC[C@H]2c2ccccc21 (relative stereo) [Example 2, Trans-1,2,3,3a,4,5-hexahydrobenzo[c]pyrrolo[3,4-e]azepin-6(10bH)-one]	pKi [2]: 7.66
7.09	O=C1NC[C@@H]2CN(Cc3cccc4ccccc34)C[C@@H]2c2ccccc21 (relative stereo) [Example 43, Cis-2-(naphthalen-1-ylmethyl)-1,2,3,3a,4,5-hexahydrobenzo[e]pyrrolo[3,4-e]azepin-6(10bH)-one]	
7.71	O=C1NC[C@@H]2CN(Cc3cccc(Cl)c3)C[C@H]2c2ccccc21 (relative stereo) [Example 32, Trans-2-(3-chlorobenzyl)-1,2,3,3a,4,5-hexahydrobenzo[c]pyrrolo[3,4-e]azepin-6(10bH)-one]	
7.99	Cc1cccc(CN2C[C@H]3CNC(=O)c4ccccc4[C@@H]3C2)c1 (relative stereo) [Example 26, Trans-2-(3-methylbenzyl)-1,2,3,3a,4,5-hexahydrobenzo[c]pyrrolo[3,4-e]azepin-6(10bH)-one]	
8.05	Cc1ccc(C)c(CN2C[C@H]3CNC(=O)c4ccccc4[C@@H]3C2)c1 (relative stereo) [Example 23, Trans-2-(2,5-dimethylbenzyl)-1,2,3,3a,4,5-hexahydrobenzo[c]pyrrolo[3,4-e]azepin-6(10bH)-one]	
7.48	O=C1NC[C@@H]2CN(Cc3ccccc3Cl)C[C@H]2c2ccccc21 (relative stereo) [Example 33, Trans-2-(2-chlorobenzyl)-1,2,3,3a,4,5-hexahydrobenzo[c]pyrrolo[3,4-e]azepin-6(10bH)-one]	
7.95	O=C1NC[C@@H]2CN(Cc3ccccc3)C[C@H]2c2ccccc21 (racemic) [Example 1, Trans-2-benzyl-1,2,3,3a,4,5-hexahydrobenzo[c]pyrrolo[3,4-e]azepin-6(10bH)-one]	pEC50 (5HT2B receptors; [4]): < 5.00; Emax (5HT2B receptors): inactive; pEC50 (5HT2C receptors [3]; [5]): 7.70; Emax (5HT2C receptors [3]; read-out: Emax): > 120%
7.92	O=C1NC[C@@H]2CN(Cc3cccc(F)c3)C[C@H]2c2ccccc21 (relative stereo) [Example 34, Trans-2-(3-fluorobenzyl)-1,2,3,3a,4,5-hexahydrobenzo[c]pyrrolo[3,4-e]azepin-6(10bH)-one]	
	O=C1NC[C@@H]2CNC[C@H]2c2ccc(OCC3CCCCC3)cc21 (relative stereo) [Example 167, Trans-8-(cyclohexylmethoxy)-1,2,3,3a,4,5-hexahydrobenzo[e]pyrrolo[3,4-c]azepin-6(10bH)-one]	Emax (5HT2B receptors): inactive; pEC50 (5HT2B receptors; EC50, 5-HT2B agonist activity): < 5.00; Emax (5HT2C receptors [3]): > 120%; pEC50 (5HT2C receptors [3]; EC50, 5-HT2C agonist activity): 8.30
	CN(C)C(=O)c1cccc(-c2ccc3c(c2)C(=O)NC[C@@H]2CNC[C@@H]32)c1 (relative stereo) [Example 230, N,N-Dimethyl-3-(trans-6-oxo-1,2,3,3a,4,5,6,10b-octahydrobenzo[c]pyrrolo[3,4-e]azepin-8-yl)benzamide]	pEC50 (5HT2B receptors; [4]): < 5.00; Emax (5HT2B receptors): inactive; pEC50 (5HT2C receptors [3]; [5]): 7.10; Emax (5HT2C receptors [3]; read-out: Emax): > 120%
	O=C1NC[C@H]2CNC[C@@H]2c2ccc(OCc3ccccc3F)cc21 [Example 179, (3aR,10bS)-8-(2-Fluorobenzyloxy)-1,2,3,3a,4,5-hexahydrobenzo[e]pyrrolo[3,4-e]azepin-6(10bH)-one]	Emax (5HT2B receptors): inactive; pEC50 (5HT2B receptors; EC50, 5-HT2B agonist activity): < 5.00; Emax (5HT2C receptors [3]): > 120%; pEC50 (5HT2C receptors [3]; EC50, 5-HT2C agonist activity): 9.52

SMILES	pEC50 (5HT2C receptors [1])	other results
O=C1NC[C@@H]2CNC[C@H]2c2ccc(Cl)cc21 (relative stereo) [Example 46, Trans-8-chloro-1,2,3,3a,4,5-hexahydrobenzo[e]pyrrolo[3,4-c]azepin-6(10bH)-one]	8.94	pKi [2]: 7.96
O=C1NC[C@@H]2CNC[C@@H]2c2ccccc21 (relative stereo) [Example 4, Cis-1,2,3,3a,4,5-hexahydrobenzo[c]pyrrolo[3,4-e]azepin-6(10bH)-one]	6.69	
